Calls of active or inactive are those of the source. The calls are words filed in the database; no cut-off is given here. Starred links: 1 amine or outer side, 2 acyl side, 3 side chain; linkers in the order of their positions; H or OH if unused. Residues, ends and D or L forms follow the SMILES beside them. *: point of attachment. X1 = CC(=O)O[C@H]1C(=O)[C@@]2(C)[C@H]([C@H](OC(=O)c3ccccc3)[C@]3(O)C[C@H](OC(=O)[C@H](OC(=O)CCCCCN4C(=O)CC(*)C4=O)[C@@H](NC(=O)c4ccccc4)c4ccccc4)C(C)=C1C3(C)C)[C@]1(OC(C)=O)CO[C@@H]1C[C@@H]2O; Pteroyl = Nc1nc2ncc(CNc3ccc(C(=O)*)cc3)nc2c(=O)[nH]1; γGlu = O=C(O)[C@H](CCC(=O)[*:2])N[*:1]
What was measured:
MCF7/PTX [1] = assay: Induction of apoptosis in human MCF7/PTX cells assessed as necrotic cells at 3 uM incubated for 12 hrs by Annexin V-FITC/propidium iodide staining based flow cytometric analysis (reference value: 2.1%); format: functional
MCF7/PTX [2] = assay: Induction of apoptosis in human MCF7/PTX cells assessed as necrotic cells at 1 uM incubated for 12 hrs by Annexin V-FITC/propidium iodide staining based flow cytometric analysis (reference value: 2.1%); format: functional
MCF7/PTX [3] = assay: Induction of mitochondrial membrane potential loss in human MCF7/PTX cells at 3 uM incubated for 12 hrs by JC1 staining-based confocal microscopic method; format: functional, cell-based
MCF7/PTX [4] = assay: Induction of apoptosis in human MCF7/PTX cells assessed as late apoptotic cells at 6 uM incubated for 12 hrs by Annexin V-FITC/propidium iodide staining based flow cytometric analysis (reference value: 0.9%); format: functional
Erythrocyte = assay: Hemolytic activity in Wistar rat erythrocytes incubated for 1 hr; format: ADME, cell-based
MCF7/PTX [5] = assay: Induction of apoptosis in human MCF7/PTX cells assessed as late apoptotic cells at 1 uM incubated for 12 hrs by Annexin V-FITC/propidium iodide staining based flow cytometric analysis (reference value: 0.9%); format: functional
MCF7/PTX [6] = assay: Induction of apoptosis in human MCF7/PTX cells incubated for 12 hrs by Annexin V-FITC/propidium iodide staining-based flow cytometric analysis; format: functional, cell-based
MCF7/PTX [7] = assay: Induction of apoptosis in human MCF7/PTX cells assessed as live cells at 3 uM incubated for 12 hrs by Annexin V-FITC/propidium iodide staining based flow cytometric analysis (reference value: 95.9%); format: functional
MCF7/PTX [8] = assay: Induction of apoptosis in human MCF7/PTX cells assessed as early apoptotic cells at 2 uM incubated for 12 hrs by Annexin V-FITC/propidium iodide staining based flow cytometric analysis (reference value: 1.1%); format: functional
MCF7/PTX [9] = assay: Induction of membrane disruption in human MCF7/PTX cells at 3 uM incubated for 12 hrs by AO/EB double staining based fluorescence microscopic method; format: functional, cell-based
MCF7/PTX [10] = assay: Induction of apoptosis in human MCF7/PTX cells assessed as necrotic cells at 6 uM incubated for 12 hrs by Annexin V-FITC/propidium iodide staining based flow cytometric analysis (reference value: 2.1%); format: functional
MCF7/PTX [11] = assay: Induction of apoptosis in human MCF7/PTX cells assessed as late apoptotic cells at 3 uM incubated for 12 hrs by Annexin V-FITC/propidium iodide staining based flow cytometric analysis (reference value: 0.9%); format: functional
Tubulin (Sus scrofa) = Tubulin (Sus scrofa) (UniProt P02554+P02550); assay: Induction of porcine brain tubulin polymerization at 3 uM by fluorescence analysis
MCF7/PTX [12] = assay: Induction of membrane disruption in human MCF7/PTX cells incubated for 12 hrs by LDH release assay; format: functional, cell-based
MCF7/PTX [13] = assay: Induction of apoptosis in human MCF7/PTX cells assessed as live cells at 6 uM incubated for 12 hrs by Annexin V-FITC/propidium iodide staining based flow cytometric analysis (reference value: 95.9%); format: functional
[14] = Half life in Wistar rat plasma at 500 ug/ml measured over 24 hrs at 37 degC by UPLC/MS analysis; format: ADME, cell-free
MCF7/PTX [15] = assay: Induction of apoptosis in human MCF7/PTX cells assessed as early apoptotic cells at 1 uM incubated for 12 hrs by Annexin V-FITC/propidium iodide staining based flow cytometric analysis (reference value: 1.1%); format: functional
MCF7/PTX [16] = assay: Induction of apoptosis in human MCF7/PTX cells assessed as early apoptotic cells at 6 uM incubated for 12 hrs by Annexin V-FITC/propidium iodide staining based flow cytometric analysis (reference value: 1.1%); format: functional
MCF7/PTX [17] = assay: Induction of apoptosis in human MCF7/PTX cells assessed as late apoptotic cells at 4 uM incubated for 12 hrs by Annexin V-FITC/propidium iodide staining based flow cytometric analysis (reference value: 0.9%); format: functional
[18] = Antitumor activity against […] cells xenografted in ICR mouse assessed as reduction in tumor volume at 12 umol/kg administered once every 2 days via peritumoral route for 2 weeks measured for 22 days by caliper analysis relative to control; format: functional
MCF7/PTX [19] = assay: Induction of apoptosis in human MCF7/PTX cells assessed as live cells at 2 uM incubated for 12 hrs by Annexin V-FITC/propidium iodide staining based flow cytometric analysis (reference value: 95.9%); format: functional
[20] = Solubility of the compound in water; format: physicochemical
MCF7/PTX [21] = assay: Induction of apoptosis in human MCF7/PTX cells assessed increase in cytochrome-c expression in cytoplasm at 3 uM incubated for 2 hrs by Western blot analysis; format: functional, cell-based
MCF7/PTX [22] = assay: Induction of apoptosis in human MCF7/PTX cells assessed as early apoptotic cells at 0.5 uM incubated for 12 hrs by Annexin V-FITC/propidium iodide staining based flow cytometric analysis (reference value: 1.1%); format: functional
MCF7/PTX [23] = assay: Cytotoxicity against human MCF7/PTX cells incubated for 48 hrs by MTT assay; format: functional, cell-based
[24] = Toxicity in ICR mouse xenografted with […] H22 cells assessed as change in body weight at 12 umol/kg administered once every 2 days via peritumoral route for 2 weeks; conditions: in vivo, other
MCF7/PTX [25] = assay: Induction of apoptosis in human MCF7/PTX cells assessed as late apoptotic cells at 2 uM incubated for 12 hrs by Annexin V-FITC/propidium iodide staining based flow cytometric analysis (reference value: 0.9%); format: functional
MCF7/PTX [26] = assay: Induction of apoptosis in human MCF7/PTX cells assessed as early apoptotic cells at 4 uM incubated for 12 hrs by Annexin V-FITC/propidium iodide staining based flow cytometric analysis (reference value: 1.1%); format: functional
A2780 = assay: Cytotoxicity against human A2780 cells incubated for 48 hrs by MTT assay; format: functional, cell-based; conditions: A2780, 48 h
MCF7/PTX [27] = assay: Induction of apoptosis in human MCF7/PTX cells assessed as early apoptotic cells at 3 uM incubated for 12 hrs by Annexin V-FITC/propidium iodide staining based flow cytometric analysis (reference value: 1.1%); format: functional
MCF7/PTX [28] = assay: Induction of apoptosis in human MCF7/PTX cells assessed as live cells at 0.5 uM incubated for 12 hrs by Annexin V-FITC/propidium iodide staining based flow cytometric analysis (reference value: 95.9%); format: functional
K562 = assay: Cytotoxicity against human K562 cells incubated for 48 hrs by MTT assay; format: functional, cell-based; conditions: K562, 48 h
HUVEC = assay: Cytotoxicity against HUVEC incubated for 48 hrs by MTT assay; format: cell-based; conditions: Homo sapiens
MCF7/PTX [29] = assay: Induction of apoptosis in human MCF7/PTX cells assessed as increase in cleaved caspase 3 level in cytoplasm at 3 uM incubated for 2 hrs by Western blot analysis; format: functional, cell-based
MCF7/PTX [30] = assay: Induction of apoptosis in human MCF7/PTX cells assessed as late apoptotic cells at 0.5 uM incubated for 12 hrs by Annexin V-FITC/propidium iodide staining based flow cytometric analysis (reference value: 0.9%); format: functional
SK-OV-3 = assay: Cytotoxicity against human SKOV3 cells incubated for 48 hrs by MTT assay; format: functional, cell-based; conditions: SK-OV-3, 48 h
MCF7/PTX [31] = assay: Induction of apoptosis in human MCF7/PTX cells assessed as necrotic cells at 2 uM incubated for 12 hrs by Annexin V-FITC/propidium iodide staining based flow cytometric analysis (reference value: 2.1%); format: functional
MCF7/PTX [32] = assay: Induction of apoptosis in human MCF7/PTX cells assessed as live cells at 4 uM incubated for 12 hrs by Annexin V-FITC/propidium iodide staining based flow cytometric analysis (reference value: 95.9%); format: functional
MCF7/PTX [33] = assay: Induction of apoptosis in human MCF7/PTX cells assessed as necrotic cells at 0.5 uM incubated for 12 hrs by Annexin V-FITC/propidium iodide staining based flow cytometric analysis (reference value: 2.1%); format: functional
MCF7/PTX [34] = assay: Induction of membrane disruption in human MCF7/PTX cells incubated for 12 hrs by AO/EB double-staining based fluorescence microscopic method; format: functional, cell-based
MCF7/PTX [35] = assay: Induction of apoptosis in human MCF7/PTX cells assessed as necrotic cells at 4 uM incubated for 12 hrs by Annexin V-FITC/propidium iodide staining based flow cytometric analysis (reference value: 2.1%); format: functional
MCF7/PTX [36] = assay: Induction of apoptosis in human MCF7/PTX cells assessed as live cells at 1 uM incubated for 12 hrs by Annexin V-FITC/propidium iodide staining based flow cytometric analysis (reference value: 95.9%); format: functional
MCF7 = assay: Cytotoxicity against human MCF7 cells incubated for 48 hrs by MTT assay; format: functional, cell-based; conditions: MCF7, 48 h

Tubulin (Sus scrofa), sequence (P02550 whole entry, looked up): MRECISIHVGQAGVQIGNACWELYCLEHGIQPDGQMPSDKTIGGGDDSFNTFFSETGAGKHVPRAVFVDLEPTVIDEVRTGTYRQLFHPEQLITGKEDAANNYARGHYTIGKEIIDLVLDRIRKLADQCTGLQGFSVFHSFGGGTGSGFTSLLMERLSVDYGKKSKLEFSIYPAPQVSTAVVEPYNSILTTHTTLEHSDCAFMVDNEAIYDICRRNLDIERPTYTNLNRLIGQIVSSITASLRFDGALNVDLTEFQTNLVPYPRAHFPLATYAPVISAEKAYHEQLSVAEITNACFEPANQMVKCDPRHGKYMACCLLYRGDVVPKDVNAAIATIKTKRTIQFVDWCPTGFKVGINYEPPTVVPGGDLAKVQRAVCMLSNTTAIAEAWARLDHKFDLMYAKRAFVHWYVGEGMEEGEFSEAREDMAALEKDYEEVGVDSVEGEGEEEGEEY
Tubulin (Sus scrofa), sequence (P02554 whole entry, looked up): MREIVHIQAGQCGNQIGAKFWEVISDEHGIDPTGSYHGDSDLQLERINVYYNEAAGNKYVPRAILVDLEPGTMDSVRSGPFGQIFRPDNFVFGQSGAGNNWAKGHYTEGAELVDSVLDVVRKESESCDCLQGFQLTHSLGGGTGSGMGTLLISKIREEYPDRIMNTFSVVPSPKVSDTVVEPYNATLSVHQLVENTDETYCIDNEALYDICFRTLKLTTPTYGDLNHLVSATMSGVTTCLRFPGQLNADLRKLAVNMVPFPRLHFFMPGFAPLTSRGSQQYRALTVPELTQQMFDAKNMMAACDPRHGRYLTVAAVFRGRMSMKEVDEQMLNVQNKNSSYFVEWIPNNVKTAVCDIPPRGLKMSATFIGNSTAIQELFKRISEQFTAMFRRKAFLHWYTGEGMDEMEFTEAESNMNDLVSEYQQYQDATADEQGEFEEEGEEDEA

CC(=O)O[C@H]1C(=O)[C@@]2(C)[C@H]([C@H](OC(=O)c3ccccc3)[C@]3(O)C[C@H](OC(=O)[C@H](OC(=O)CCCCCN4C(=O)CC(SC[C@H](NC(=O)[C@H](CCCNC(=N)N)NC(=O)[C@H](CCCNC(=N)N)NC(=O)[C@H](CC(C)C)NC(=O)[C@H](CCCNC(=N)N)NC(=O)[C@H](CCCNC(=N)N)NC(=O)[C@H](Cc5ccccc5)NC(=O)[C@H](Cc5ccccc5)NC(=O)[C@H](CCCNC(=N)N)NC(=O)[C@H](CCCNC(=N)N)NC(=O)[C@H](Cc5ccccc5)NC(=O)[C@H](CCCNC(=N)N)NC(=O)[C@H](CCCNC(=N)N)NC(=O)[C@@H](NC(=O)[C@H](CC(C)C)NC(=O)CC[C@H](NC(=O)c5ccc(NCc6cnc7nc(N)[nH]c(=O)c7n6)cc5)C(=O)O)C(C)C)C(=O)N[C@H](C(=O)N[C@@H](CC(C)C)C(=O)N[C@@H](CC(C)C)C(N)=O)C(C)C)C4=O)[C@@H](NC(=O)c4ccccc4)c4ccccc4)C(C)=C1C3(C)C)[C@]1(OC(C)=O)CO[C@@H]1C[C@@H]2O (stereo partly drawn) ({Pteroyl-γGlu}-LVRRFRRFFRRLRRC(X1)VLL-NH2)
Activity (MCF7/PTX [1]): 5.6% | Activity (MCF7/PTX [2]): 5.6% | Activity (MCF7/PTX [3]): Active | Activity (MCF7/PTX [4]): 62% | Activity (Erythrocyte): Toxic | Activity (MCF7/PTX [5]): 11.4% | Activity (MCF7/PTX [6]): Dose-dependent effect | Activity (MCF7/PTX [7]): 51.6% | Activity (MCF7/PTX [8]): 1.5% | Activity (MCF7/PTX [9]): Active | Activity (MCF7/PTX [10]): 7.5% | Activity (MCF7/PTX [11]): 41.6% | Activity (Tubulin (Sus scrofa)): Active | Activity (MCF7/PTX [12]): Dose-dependent effect | Activity (MCF7/PTX [13]): 29.2% | half-life at 500 ug/ml [14]: 5.9 h | Activity (MCF7/PTX [15]): 1.6% | Activity (MCF7/PTX [16]): 1.3% | Activity (MCF7/PTX [17]): 54.6% | inhibition in vivo at 12 µmol/kg [18]: 69% | Activity (MCF7/PTX [19]): 65.8% | solubility [20]: > 20 mg/mL | Activity (MCF7/PTX [21]): Active | Activity (MCF7/PTX [22]): 2.4% | IC50 (MCF7/PTX [23]): 2.92 µM | Activity [24]: Non-Toxic | Activity (MCF7/PTX [25]): 28.8% | Activity (MCF7/PTX [26]): 1.4% | IC50 (A2780): 1.42 µM | Activity (MCF7/PTX [27]): 1.2% | Activity (MCF7/PTX [28]): 83.1% | IC50 (K562): 3.85 µM | IC50 (HUVEC): 45.2 µM | Activity (MCF7/PTX [29]): Active | Activity (MCF7/PTX [30]): 7.4% | IC50 (SK-OV-3): 5.49 µM | Activity (MCF7/PTX [31]): 3.9% | Activity (MCF7/PTX [32]): 28.8% | Activity (MCF7/PTX [33]): 7.1% | Activity (MCF7/PTX [34]): Dose-dependent effect | Activity (MCF7/PTX [35]): 15.1% | Activity (MCF7/PTX [36]): 81.4% | IC50 (MCF7): 1.39 µM

Reference: ChEMBL document CHEMBL4346678, “Synthesis and anti-cancer evaluation of folic acid-peptide- paclitaxel conjugates for addressing drug resistance” (Eur J Med Chem, 2019)
